Several values for one entry are separate records, joined by “and”; a condition that tells them apart may be missing. Equal values may be shown once.
What was measured:
[1] = target: O114933_C98 (Homo sapiens, UniProt O14933); test: Competitive isoTOP-ABPP, cell lysates; type: binding; conditions: 500 μm
[2] = target: T1, cysteines in MDA-MB-231 and Ramos cells (Homo sapiens, UniProt Q9NVC6); test: Competitive isoTOP-ABPP in situ (fragment-treated cells); type: cell-based
T1 sequence (Q9NVC6 1-651): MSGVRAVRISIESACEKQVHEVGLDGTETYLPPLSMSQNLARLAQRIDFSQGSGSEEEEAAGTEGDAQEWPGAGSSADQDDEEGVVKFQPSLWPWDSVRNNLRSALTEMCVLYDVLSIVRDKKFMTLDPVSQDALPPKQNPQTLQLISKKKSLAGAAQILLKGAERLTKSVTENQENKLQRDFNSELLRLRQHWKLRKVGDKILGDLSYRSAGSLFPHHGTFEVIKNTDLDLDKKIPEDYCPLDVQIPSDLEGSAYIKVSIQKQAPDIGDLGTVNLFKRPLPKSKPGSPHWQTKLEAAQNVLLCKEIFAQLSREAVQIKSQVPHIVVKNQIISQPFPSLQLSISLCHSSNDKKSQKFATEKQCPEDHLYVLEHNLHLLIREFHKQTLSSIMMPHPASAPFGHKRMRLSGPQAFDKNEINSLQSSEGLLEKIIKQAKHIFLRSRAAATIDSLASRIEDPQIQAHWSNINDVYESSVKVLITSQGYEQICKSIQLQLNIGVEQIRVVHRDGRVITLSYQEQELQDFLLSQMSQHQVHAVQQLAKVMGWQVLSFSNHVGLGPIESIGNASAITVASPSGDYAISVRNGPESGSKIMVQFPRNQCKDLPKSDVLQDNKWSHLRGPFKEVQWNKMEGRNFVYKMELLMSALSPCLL

[3] = target: T2, ERCC3 C342 (P19447) (Homo sapiens, UniProt P19447); test: Competitive isoTOP-ABPP, cell lysates; type: binding; conditions: for isoTOP-ABPP reactivity ratio, P19447_C342 / isoTOP-ABPP reactivity profile ratio, P19447_C342: 500 μm, in-vitro_ramos_231; for isoTOP-ABPP ratio P19447_C342: invitro; for R value (DMSO/fragment): in vitro
T2 sequence (P19447 1-782): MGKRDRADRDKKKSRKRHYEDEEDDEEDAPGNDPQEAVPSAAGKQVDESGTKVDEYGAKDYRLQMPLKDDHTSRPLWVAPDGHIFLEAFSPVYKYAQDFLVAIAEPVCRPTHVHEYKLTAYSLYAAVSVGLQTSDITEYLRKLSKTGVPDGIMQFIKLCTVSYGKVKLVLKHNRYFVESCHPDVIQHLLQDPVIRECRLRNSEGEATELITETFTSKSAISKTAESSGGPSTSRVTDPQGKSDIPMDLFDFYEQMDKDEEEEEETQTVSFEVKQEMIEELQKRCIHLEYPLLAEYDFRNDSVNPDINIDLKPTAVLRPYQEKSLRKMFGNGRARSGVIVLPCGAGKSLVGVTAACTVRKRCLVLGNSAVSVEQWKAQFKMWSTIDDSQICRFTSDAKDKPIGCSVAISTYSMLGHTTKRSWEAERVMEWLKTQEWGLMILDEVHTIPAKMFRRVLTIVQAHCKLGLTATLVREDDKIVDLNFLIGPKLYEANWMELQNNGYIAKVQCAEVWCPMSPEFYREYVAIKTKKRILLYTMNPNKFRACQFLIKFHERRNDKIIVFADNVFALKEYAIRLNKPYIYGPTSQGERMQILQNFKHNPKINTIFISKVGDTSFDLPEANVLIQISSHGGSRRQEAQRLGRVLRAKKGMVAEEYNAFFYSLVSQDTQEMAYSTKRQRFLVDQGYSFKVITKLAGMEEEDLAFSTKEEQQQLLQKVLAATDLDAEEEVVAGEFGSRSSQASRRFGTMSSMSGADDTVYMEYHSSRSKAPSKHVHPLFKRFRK
Experimental: TEV digests were pressure loaded onto a 250 μm (inner diameter) fused silica capillary column packed with C18 resin (Aqua 5 μm, Phenomenex). The samples were analyzed by multidimensional liquid chromatography tandem mass spectrometry (MudPIT), using an LTQ-Velos Orbitrap mass spectrometer (Thermo Scientific) coupled to an Agilent 1200-series quaternary pump. […] One full MS (MS1) scan (400-1800 m/z) was followed by 30 MS2 scans (ITMS) of the nth most abundant ions.
The ratios of heavy/light for each unique peptide (DMSO/compound treated; isoTOP-ABPP ratios, R values) were quantified with in-house CIMAGE software, using default parameters (3 ms s per peak and signal to noise threshold 2.5). Site-specific engagement of electrophilic fragments was assessed by blockade of IA-alkyne probe labeling. […] Ratios for unique peptide entries were calculated for each experiment; overlapping peptides with the same modified cysteine (e.g. different charge states, MudPIT chromatographic steps or tryptic termini) were grouped together and the median ratio was reported as the final ratio (R). The peptide ratios reported by CIMAGE were further filtered to ensure the removal or correction of low quality ratios in each individual dataset. The quality filters applied were the following: removal of half tryptic peptides; for ratios with high standard deviations from the median (90% of the median or above) the lowest ratio was taken instead of the median; removal of peptides with R=20 and only a single ms2 event triggered during the elution of the parent ion; manual annotation of all the peptides with ratios of 20, removing any peptides with low-quality elution profiles that remained after the previous curation steps. Proteome reactivity values for individual fragments were computed as the percentage of the total quantified cysteine-containing peptides with R values≥4 (defined as liganded cysteines) for each replicate experiment and the final proteome reactivity value was calculated as the mean for all replicate experiments for each fragment from both MDA-MB-231 and Ramos cellular proteomes.
Biological replicates of the same compound and cell-line were averaged if the standard deviation was below 60% of the mean; otherwise the lowest value of the ratio set was taken. For peptides with multiple modified cysteines, the cysteine with the highest number of quantification events was kept and the remaining, redundant peptides were discarded. […] Although the majority (>75% of fragments) were profiled in at least two biological replicates, some data from single replicate MS experiments were included.

Chain of O114933_C98 (O14933 whole entry, the tested form may be a part): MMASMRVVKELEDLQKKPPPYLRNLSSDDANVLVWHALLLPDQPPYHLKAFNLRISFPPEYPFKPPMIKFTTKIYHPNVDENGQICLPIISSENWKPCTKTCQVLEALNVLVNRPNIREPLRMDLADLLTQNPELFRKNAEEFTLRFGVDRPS

## O=C(CCl)N(Cc1ccc(F)cc1)C12CC3CC(CC(C3)C1)C2 [compound 34]
[1]; in-vitro_ramos_231
  isoTOP-ABPP reactivity ratio, O114933_C98: 0.8

## COc1ccccc1OCCNC(=O)CCl [compound 28]
[2]; 200 μM, insitu, 231
  isoTOP-ABPP ratio Q9NVC6_C649: 1.1

## O=C(CCl)N1CCC(C(O)(c2ccccc2)c2ccccc2)CC1 [compound 20]
[3]; 500 μm in-vitro ramos_231
  isoTOP-ABPP ratio (reactivity profile), P19447_C342: 2.6

## Cc1ccc(C=C(C#N)C(=O)NCCN2CCOCC2)cc1 [compound 41]
[3]
  isoTOP-ABPP reactivity ratio, P19447_C342: 1.1
[1]; in-vitro_ramos
  isoTOP-ABPP reactivity ratio, O114933_C98: 1.1
[1]; in-vitro_ramos_231
  isoTOP-ABPP reactivity ratio, O114933_C98: 1.2
[2]; 200 μM, insitu, 231
  isoTOP-ABPP ratio Q9NVC6_C649: 0.8

## O=C(CCl)NC(=O)NC12CC3CC(CC(C3)C1)C2 [compound 12]
[3]; 500 μM, 231
  isoTOP-ABPP ratio P19447_C342: 3.0
[2]; 200 μM, insitu, 231
  isoTOP-ABPP ratio Q9NVC6_C649: 4.0

## O=C(CCl)NCCc1c[nH]c2ccccc12 [compound 13]
[3]; 500 μM, 231
  isoTOP-ABPP ratio P19447_C342: 1.0
[2]; 200 μM, insitu, 231
  isoTOP-ABPP ratio Q9NVC6_C649: 1.1
[2]; 200 μM, insitu, ramos
  isoTOP-ABPP ratio Q9NVC6_C649: 1.0

## O=C(CCl)N1CCC(Cc2ccccc2)CC1 [compound 9]
[2]; 200 μM, insitu, 231
  isoTOP-ABPP reactivity Q9NVC6_C649 MED17: 2.2

## COc1ccc(C2CC(c3cccs3)=NN2C(=O)CCl)cc1 (centres unmarked) [compound 4]
[3]; 250 μM, MDA-MB-231
  R value (DMSO/fragment): 1.6
[3]; 250 μM, Ramos
  R value (DMSO/fragment): 1.1
[2]; 100 μM in situ 231
  isoTOP-ABPP reactivity Q9NVC6_C649 MED17: 1.7

## CC(C)(C)c1cc(NC(=O)CCl)on1 [compound 32]
[1]; in-vitro_ramos
  isoTOP-ABPP reactivity ratio, O114933_C98: 4.6
[1]; in-vitro_ramos_231
  isoTOP-ABPP reactivity ratio, O114933_C98: 13.8

## O=C(CCl)Nc1ccc(-c2ccccc2)cc1 [compound 52]
[3]
  isoTOP-ABPP reactivity profile ratio, P19447_C342: 1.0

## O=C(CCl)NC12CC3CC(CC(C3)C1)C2 [compound 21]
[3]; 500 μm in-vitro ramos_231
  isoTOP-ABPP ratio (reactivity profile), P19447_C342: 6.1
[2]; 200 μM, insitu, 231
  isoTOP-ABPP ratio Q9NVC6_C649: 0.8

## O=C(CCl)Nc1cccc2ncccc12 [compound 51]
[3]
  isoTOP-ABPP reactivity profile ratio, P19447_C342: 1.4

## Cn1cc(S(=O)(=O)N2CCOCC2)cc1C(=O)NC(=O)CCl [compound 11]
[3]; 500 μM, 231
  isoTOP-ABPP ratio P19447_C342: 2.9
[3]; 500 μM, ramos
  isoTOP-ABPP ratio P19447_C342: 1.5
[2]; 100 μM in situ 231
  isoTOP-ABPP ratio Q9NVC6_C649: 0.8

## C=CC(=O)Nc1cc(F)c(N2CCN(C(=O)OC(C)(C)C)CC2)c(F)c1 [compound 38]
[3]
  isoTOP-ABPP reactivity ratio, P19447_C342: 1.3
[1]; in-vitro_ramos
  isoTOP-ABPP reactivity ratio, O114933_C98: 1.7
[1]; in-vitro_ramos_231
  isoTOP-ABPP reactivity ratio, O114933_C98: 1.6
[2]; 200 μM, insitu, 231
  isoTOP-ABPP ratio Q9NVC6_C649: 1.2

## O=C(CCl)Nc1cc(C(F)(F)F)cc(C(F)(F)F)c1 [compound 3]
[3]; 500 μM, MDA-MB-231
  R value (DMSO/fragment): 12.1

## C=CC(=O)N(c1ccccc1)c1ccc(Br)cc1 [compound 5]
[3]; 500 μM, ramos
  isoTOP-ABPP ratio P19447_C342: 4.1

## CC1CCc2ccccc2N1C(=O)CCl (centres unmarked) [compound 45]
[2]; 200 μM, insitu, 231
  isoTOP-ABPP ratio Q9NVC6_C649: 20.0

## C=CC(=O)N(c1ccccc1)C1CCCCC1 [compound 46]
[3]
  isoTOP-ABPP reactivity profile ratio, P19447_C342: 1.0

## COc1ccc2c(c1)CCCN2C(=O)CCl [compound 2]
[3]; 500 μM, MDA-MB-231
  R value (DMSO/fragment): 20.0
[2]; 200 μM, insitu, 231
  isoTOP-ABPP reactivity Q9NVC6_C649 MED17: 7.7

## CCN(CC)c1ccc(S(N)(=O)=O)cc1NC(=O)CCl [compound 30]
[3]; 500 μm in-vitro ramos
  isoTOP-ABPP ratio (reactivity profile), P19447_C342: 1.3
[1]; in-vitro_ramos
  isoTOP-ABPP reactivity ratio, O114933_C98: 2.1

## CNS(=O)(=O)C=Cc1ccc2c(ccn2Cc2ccccc2)c1 [compound 6]
[3]; 500 μM, 231
  isoTOP-ABPP ratio P19447_C342: 1.1

## COc1cc2c(cc1OC)CN(C(=O)CCl)CC2 [compound 8]
[2]; 200 μM, insitu, 231
  isoTOP-ABPP reactivity Q9NVC6_C649 MED17: 3.2

## CC(Cl)C(=O)Nc1cc(C(F)(F)F)cc(C(F)(F)F)c1 (centres unmarked) [compound 25]
[3]; 500 μm in-vitro ramos_231
  isoTOP-ABPP ratio (reactivity profile), P19447_C342: 0.9

## N#C/C(=C\c1cc(C(F)(F)F)cc(C(F)(F)F)c1)C(N)=O [compound 23]
[3]; 500 μm in-vitro ramos_231
  isoTOP-ABPP ratio (reactivity profile), P19447_C342: 1.6

## CC(C)CCOCCNC(=O)CCl [compound 27]
[3]; 500 μm in-vitro ramos_231
  isoTOP-ABPP ratio (reactivity profile), P19447_C342: 0.8 and 1.1
[2]; 200 μM, insitu, 231
  isoTOP-ABPP ratio Q9NVC6_C649: 1.3

## C=CC(=O)Nc1cc(C)c(Br)cc1C [compound 40]
[1]; in-vitro_ramos
  isoTOP-ABPP reactivity ratio, O114933_C98: 1.3

## O=C(CCl)N1CCN(S(=O)(=O)c2ccccc2F)CC1 [compound 10]
[3]; 500 μM, 231
  isoTOP-ABPP ratio P19447_C342: 3.0
[2]; 200 μM, insitu, 231
  isoTOP-ABPP ratio Q9NVC6_C649: 2.3
[2]; 200 μM, insitu, ramos
  isoTOP-ABPP ratio Q9NVC6_C649: 2.1

## O=C(CCl)N1CCN(CC(=O)N2CCOCC2)CC1 [compound 29]
[3]; 500 μm in-vitro ramos_231
  isoTOP-ABPP ratio (reactivity profile), P19447_C342: 0.8
[2]; 200 μM, insitu, ramos
  isoTOP-ABPP ratio Q9NVC6_C649: 1.6

## C=CC(=O)N(Cc1cccnc1)c1cc(C(F)(F)F)cc(C(F)(F)F)c1 [compound 31]
[2]; 200 μM, insitu, 231
  isoTOP-ABPP ratio Q9NVC6_C649: 0.8

Source: US10670605B2, “Cysteine reactive probes and uses thereof” (The Scripps Research Institute, priority 2015, dated 2020)
